How the values were obtained:
[1] = test system: embryonic fibroblasts of mouse NIH-3T3; assay: Effect on endocellular pHi of fibroblasts (microspectrofluorimetry with FDA / BCECF-AM); format: cell-based; settings: for rise of pHi: fibroblasts in an attached spread state; for change of pHi: medium DME without blood serum, 20 minutes; for increase of pHi of cytosol: medium with 10.0% blood serum, 20 minutes after addition
Experimental: The effect of the compounds according to the invention on the endocellular pH, embryonic fibroblasts of mouse NIH-3T3 supplied by the All-Russian Collection of Cellular Cultures of the Institute of Cytology of the Russian Academy of Sciences St. Petersburg was investigated. The cells were grown in the DMEM (Sigma) medium containing 2.2 g/l of sodium bicarbonate with addition of 80.0 mkg/ml of gentamicin and 10.0% embryonal veal serum at a temperature of 37° C. in an atmosphere containing 5.0% of carbon dioxide. For these experiments use was also made of a medium buffer with 5.0 mM of HEPES and 15.0 mM of sodium bicarbonate without serum or with addition of 5.0% serum. The cells were calculated with the help of a hemocytometer. A share of the dead cells was determined by colouring trypan blue.
The measurements of the endocellular pHi were carried out with the help of colorants FDA (Sigma) and BCECF-AM (Calbiochem) on a microspectrofluorimeter by a standard technique (Koshevoy Yu. V., Akatov V. S., Grobova M. E. Microspectrofluorimeter for measuring endocellular pH (micro pH)”. Devices and equipment for studies in the field of physical-and-chemical biology and biotechnology. Pushchino, 1990. P. 8-14).
The cells at a temperature of 37° C. were colored within 5 minutes with 5.0 mkM PDA that before the colouring was prepared from a 10.0 mM solution in acetone by dilution for 30 minutes in a phosphatic buffer to 0.1 mM or 2.0 mkM 1.0 mM solution BCECF-AM in DMSO.
The two-wave method of determining pHi was used based on the ratio intensities of fluorescence of the cells on two wavelengths (Akatov V. S. et all), “Endocellular pH and substrate dependence of proliferation of fibroblasts of Chinese hamster, Cytology, 1991, 33 (7), p. 86-94). The fluorescence was excited by light at λ=490 nm, the emission was recorded simultaneously with two photomultipliers on wavelengths λ=535 nm and λ=570 nm. The K-ratio of the fluorescence on two wavelengths was determined with a deduction of the background fluorescence of the medium near the investigated cells for 40-60 individual cells, which are then averaged taking into account the measurement error. A thermostatically controlled table was used that allowed measurements to be conducted at a temperature of 37° C. An account was taken for the photodynamic damage of the pigmented cells during long-time continuous illumination by excited light. The readings were taken from a section of the preparation exposed to light for not more than 5 minutes.
The calibration curves for determining the absolute pHi values by magnitude K were constructed using the Thomas technique (Thomas J. A., Bushbaum R. N., Zimniak A. w Racker E. “Intracellular pH measurements in Ehrlich ascites tumor cells utilizing spectroscopic probe generated in situ”, Biochemistry, 1979, v. 18, p. 2210-2218), for which case the pigmented cells treated for 5-10 minutes with carboxyacidic nigericyn (Calbiochem) at a concentration of 5-10 mkg/ml was placed in a solution with a high content of potassium—130 mM KCl, 1.0 mM MgCl2, 20.0 mM of HEPES) and with pH values from 6.2 to 7.6. The K values were measured in the media with different pH assuming that pHi of the cells equals to the pH of the medium due to the action of nigericyn, which exchanges potassium ions for protons and at a high content of potassium in the medium counterbalances the pH of the medium and cells. Calibration curves were used based on the fluorescence of same medium with addition of 5.0 mkM of fluorescence or BCECF were used to the control the stability of the of the instrument readings.
The cells were colored by pigment BCECF-AM and pHi was measured 10 minutes after incubation in the medium with an appropriate pH value. […]

[2] = Electrochemical activity: polarographic reduction on mercury dripping electrode; format: physicochemical; settings: for number of electrons participating in the reduction reaction: calculated with Geirovsky-Ilkovich equation; for i: 2.0% sodium chloride background, 9·10^−4 M; for i / −E1/2: 37° C., forward trace, average for the group of compounds; for −E1/2: vs SCE; for half-wave potential more positive at reverse stroke compared to forward stroke: polarograms of reverse stroke
Experimental: The study was carried out on a general-purpose polarograph PU-1 with a two-coordinate recorder of the “LKD” type using a three-electrode thermostatically controlled polarographic cell and mercury dripping electrode (MDE) with forced separation of the drop and a dropping period of 0.5 second. A platinum wire was used as an auxiliary electrode and a saturated calomel electrode (SCE) was used as a control electrode.
2.0% solutions of sodium chloride having pH 7.0, 7.2, 7.4, 7.6 were used as a background; the pH values of the background solution were corrected by a solution of sodium hydroxide. The polarographic cell was filled with 5.0 ml of the background solution and for 5 minutes was purged with nitrogen for removing the dissolved oxygen. Then 0.5 ml of solution of the studied substance was added to the background solution, and the polarogram was recorded as a polarographic wave. The concentration of the compounds in the polarographic cell was 9·10^−4 M.
The pH was measured on the pH-meter with an accuracy of +0.05 pH units. The polarographic measurements were carried out at a temperature of 37° C. The recording of polarograms of the investigated materials was effected under conditions of DC current at a scanning rate of the potential 10.0 mV/s with a active scanning stroke from a potential 0 to −0.5 V and sweep retrace from a −0.5 V to 0. The electric-current sensitivity was 5.0 mkA. The scale by the coordinate of the potentials was 50.0 mV/cm. The values of potentials of the half-wave E1/2 of the investigated materials are given with respect to the SCE potential.
The polarogram parameters such as a limiting current ilim and E1/2 were determined by the graphic method. The number of electrons participating in the reaction was calculated on the basis of the analysis of the polarographic wave using the Geirovsky-Ilkovich equation.
The calculation of the number of electrons participating in the reduction reaction was effected using the Geirovsky-Ilkovich equation: […]

Row | Structure (SMILES) | rise of pHi ([1]; 2.0 mkg/ml, on the average) [unit pHi] | rise of pHi ([1]; 20.0 mkg/ml, on the average) [unit pHi] | change of pHi ([1]; 0.02 mkg/ml) | change of pHi ([1]; 0.2 mkg/ml) | change of pHi ([1]; 2.0 mkg/ml, on the average) [unit pHi] | change of pHi ([1]; 20.0 mkg/ml, on the average) [unit pHi] | change of pHi ([1]; 200 mkg/ml) | change of pHi ([1]; 1000 mkg/ml) | increase of pHi of cytosol ([1]; 0.02 mkg/ml) | increase of pHi of cytosol ([1]; 0.2 mkg/ml, on the average) [unit pH] | increase of pHi of cytosol ([1]; 2.0 mkg/ml, on the average) [unit pH] | increase of pHi of cytosol ([1]; 20.0 mkg/ml) | number of electrons participating in the reduction reaction [2] | i ([2]; pH 7.0) [mkA] | −E1/2 ([2]; pH 7.0) [V] | i ([2]; pH 7.2) [mkA] | −E1/2 ([2]; pH 7.2) [V] | i ([2]; pH 7.4) [mkA] | −E1/2 ([2]; pH 7.4) [V] | i ([2]; pH 7.6) [mkA] | also measured
1 | O=c1[nH][nH]c(=O)c2ncccc12.[Na] [Compound 7, sodium salt of pyrido[2,3-d]-6H-pyridazine-5,8-dione] | 0.10 | 0.07 | no effect was found | no effect was found | 0.08 | 0.08 | no effect was found | no effect was found | do not initiate a change of pH | 0.1 | 0.12 | do not initiate a change of pH | 3.72 | 0.26 ± 0.04 | 0.11 ± 0.02 | 0.31 ± 0.02 | 0.11 ± 0.03 | 0.27 ± 0.03 | 0.105 ± 0.01 | 0.30 ± 0.01 | −E1/2 ([2]; pH 7.6): 0.105 ± 0.02 V; half-wave potential more positive at reverse stroke compared to forward stroke [2]: 25.0 mV
2 | O=C([O-])c1ccc2c(=O)[nH][nH]c(=O)c2c1.O=C([O-])c1ccc2c(=O)[nH][nH]c(=O)c2c1.[Na+].[Na+] [Compound 18, disodium salt of 6-carboxy-benzo[d]-3H-pyridazine-1,4-dione] | 0.10 | 0.07 | no effect was found | no effect was found | 0.08 | 0.08 | no effect was found | no effect was found | do not initiate a change of pH | 0.1 | 0.12 | do not initiate a change of pH | 4.09 | 0.23 ± 0.03 | 0.092 ± 0.02 | 0.30 ± 0.01 | 0.09 ± 0.01 | 0.29 ± 0.02 | 0.092 ± 0.02 | 0.31 ± 0.02 | −E1/2 ([2]; pH 7.6): 0.09 ± 0.01 V; half-wave potential more positive at reverse stroke compared to forward stroke [2]: 30.0 mV
3 | O=c1[nH][nH]c(=O)c2ncncc12.[Li] [Compound 35, lithium salt of pyrimido[4,5-d]-6H-pyridazine-5,8-dione] | 0.10 | 0.07 | no effect was found | no effect was found | 0.08 | 0.08 | no effect was found | no effect was found | do not initiate a change of pH | 0.1 | 0.12 | do not initiate a change of pH | 3.5 | 0.30 ± 0.05 | 0.08 ± 0.02 | 0.26 ± 0.02 | 0.085 ± 0.015 | 0.30 ± 0.03 | 0.085 ± 0.02 | 0.30 ± 0.02 | −E1/2 ([2]; pH 7.6): 0.09 ± 0.02 V; half-wave potential more positive at reverse stroke compared to forward stroke [2]: 27.0 mV

Reference: US8592421B2, “Cyclic bioisosters of purine system derivatives and a pharmaceutical composition based thereon” (priority 2003, dated 2013)
